From patent publication US5041567A, “Antibacterial monic acid derivatives” (Beecham Group plc, priority 1982, dated 1991)
Values after ≈ are worked out from the molar mass of the structure shown. Where two headings read alike, the source gives them in different places.

Legend:
[1] = system: Bord. bronchiseptica B09; experiment: MIC against veterinary bacteria in vitro; conditions: Bordetella bronchiseptica, B09, 18 h
Procedure: (§1) The activity of the compounds of the Examples against various veterinarily important bacteria, was assayed in vitro using two-fold serial dilutions in Diagnostic Sensitivity Test Agar inoculated with 10^4 organisms.

[2] = system: Strep. spp. 64/848-C; experiment: MIC against human bacteria in vitro; format: cell-based; conditions: Strep. spp. 64/848-C; 5% chocolated horse blood agar, 18 hours; read-out: MIC
[3] = system: M. suipneumoniae ATCC 25095; experiment: MIC against mycoplasma in vitro; format: cell-based; conditions: Mesomycoplasma hyopneumoniae, ATCC25095, 144 h
[4] = system: M. suipneumoniae TAM 6N; experiment: MIC against mycoplasma in vitro; format: cell-based; conditions: Mesomycoplasma hyopneumoniae, TAM6N, 144 h
[5] = system: Staph. aureus W2827; experiment: MIC against human bacteria in vitro; format: cell-based; conditions: Staphylococcus aureus; Staph. aureus W2827; 5% chocolated horse blood agar, 18 hours; read-out: MIC
[6] = system: Staph. aureus Oxford; experiment: MIC against human bacteria in vitro; format: cell-based; conditions: Staphylococcus aureus; Staph. aureus Oxford; 5% chocolated horse blood agar, 18 hours; read-out: MIC
[7] = system: Strep. faecalis I; experiment: MIC against human bacteria in vitro; format: cell-based; conditions: Enterococcus faecalis; Strep. faecalis I; 5% chocolated horse blood agar, 18 hours; read-out: MIC
[8] = system: E. coli NCTC 10418; experiment: MIC against human bacteria in vitro; format: cell-based; conditions: Escherichia coli, NCTC10418; E. coli NCTC 10418; agar with 5% chocolated horse blood, 18 hours, 37° C.; read-out: MIC
[9] = system: M. suipneumoniae PW/C/210; experiment: MIC against mycoplasma in vitro; format: cell-based; conditions: Mesomycoplasma hyopneumoniae, 144 h
[10] = system: Strep. agalactiae SPA1; experiment: MIC against veterinary bacteria in vitro; conditions: Streptococcus agalactiae, SPA1, 18 h
Procedure: as §1

[11] = system: Bord. bronchiseptica B08; experiment: MIC against veterinary bacteria in vitro; conditions: Bordetella bronchiseptica, B08, 18 h
Procedure: as §1

[12] = system: M. suipneumoniae LABER; experiment: MIC against mycoplasma in vitro; format: cell-based; conditions: Mesomycoplasma hyopneumoniae, 144 h
[13] = system: Strep. suis (group D) SPS11; experiment: MIC against veterinary bacteria in vitro; conditions: Streptococcus suis, 18 h
Procedure: as §1

[14] = system: M. hyorhinis ATCC 23234; experiment: MIC against mycoplasma in vitro; format: cell-based; conditions: Mesomycoplasma hyorhinis, ATCC23234, 144 h
[15] = system: Strep. dysgalactiae SPD1; experiment: MIC against veterinary bacteria in vitro; conditions: Streptococcus dysgalactiae, SPD1, 18 h
Procedure: as §1

[16] = system: M. suipneumoniae HK(2); experiment: MIC against mycoplasma in vitro; format: cell-based; conditions: Mesomycoplasma hyopneumoniae, 144 h
[17] = system: Strep. agalactiae 2788-B; experiment: MIC against human bacteria in vitro; format: cell-based; conditions: Streptococcus agalactiae; Strep. agalactiae 2788-B; 5% chocolated horse blood agar, 18 hours; read-out: MIC
[18] = system: Corynebacterium xerosis 9755; experiment: MIC against human bacteria in vitro; format: cell-based; conditions: Corynebacterium xerosis 9755; 5% chocolated horse blood agar, 18 hours; read-out: MIC
[19] = system: Pasteurella multocida 1633; experiment: MIC against human bacteria in vitro; format: cell-based; conditions: Pasteurella multocida 1633; 5% chocolated horse blood agar, 18 hours; read-out: MIC
[20] = system: E. coli E1; experiment: MIC against veterinary bacteria in vitro; conditions: Escherichia coli, E1, 18 h
Procedure: as §1

[21] = system: K. aerogenes A; experiment: MIC against human bacteria in vitro; format: cell-based; conditions: Klebsiella aerogenes; K. aerogenes A; 5% chocolated horse blood agar, 18 hours; read-out: MIC
[22] = system: Sarcina lutea 8340; experiment: MIC against human bacteria in vitro; format: cell-based; conditions: Micrococcus luteus; Sarcina lutea 8340; 5% chocolated horse blood agar, 18 hours; read-out: MIC
[23] = system: M. suipneumoniae MS 16; experiment: MIC against mycoplasma in vitro; format: cell-based; conditions: Mesomycoplasma hyopneumoniae, MS16, 144 h
[24] = system: Staph. aureus Russell; experiment: MIC against human bacteria in vitro; format: cell-based; conditions: Staphylococcus aureus; Staph. aureus Russell; 5% chocolated horse blood agar, 18 hours; read-out: MIC
[25] = system: E. coli ESS; experiment: MIC against human bacteria in vitro; format: cell-based; conditions: Escherichia coli; E. coli ESS; 5% chocolated horse blood agar, 18 hours; read-out: MIC
[26] = system: M. dispar NCTC 10125; experiment: MIC against mycoplasma in vitro; format: cell-based; conditions: 144 h
[27] = system: Staph. aureus B4 (pen. resistant); experiment: MIC against veterinary bacteria in vitro; conditions: Staphylococcus aureus, 18 h
Procedure: as §1

[28] = system: Past. multocida PA2; experiment: MIC against veterinary bacteria in vitro; conditions: Pasteurella multocida, PA2, 18 h
Procedure: as §1

[29] = system: S. dublin S7; experiment: MIC against veterinary bacteria in vitro; conditions: Salmonella enterica, S7, 18 h
Procedure: as §1

[30] = system: M. hyorhinis ATCC 25021; experiment: MIC against mycoplasma in vitro; format: cell-based; conditions: Mesomycoplasma hyorhinis, ATCC25021, 144 h
[31] = system: Past. multocida PA1; experiment: MIC against veterinary bacteria in vitro; conditions: Pasteurella multocida, PA1, 18 h
Procedure: as §1

[32] = system: P. mirabilis 889; experiment: MIC against human bacteria in vitro; format: cell-based; conditions: Proteus mirabilis; P. mirabilis 889; 5% chocolated horse blood agar, 18 hours; read-out: MIC
[33] = system: Bacillus subtilis 6633; experiment: MIC against human bacteria in vitro; format: cell-based
[34] = system: M. suipneumoniae UCD 1; experiment: MIC against mycoplasma in vitro; format: cell-based; conditions: Mesomycoplasma hyopneumoniae, UCD1, 144 h

SMILES | MIC [1] | MIC [2] | MIC [5] | MIC [6] | MIC [7] | MIC [8] | MIC [9] | MIC [10] | MIC [11] | MIC [12] | MIC [13] | MIC [14] | MIC [15] | MIC [17] | MIC [18] | MIC [19] | MIC [20] | MIC [21] | MIC [22] | MIC [23] | further results
C/C(=C\c1ncc(-c2cccc([S+](C)[O-])c2)o1)C[C@@H]1OC[C@H](C[C@@H]2O[C@H]2[C@@H](C)[C@H](C)O)[C@@H](O)[C@H]1O (some centres unmarked) [Example 25, 5-m-Methylsulphinylphenyl-2-(1-normon-2-yl)oxazole A] | 40 µg/mL (≈ 79.1 µM) | 4 µg/mL (≈ 7.91 µM) | 32 µg/mL (≈ 63.3 µM) | 4 µg/mL (≈ 7.91 µM) | > 128 µg/mL | > 128 µg/mL | 0.25 µg/mL (≈ 0.494 µM) | 2.5 µg/mL (≈ 4.94 µM) | > 80 µg/mL | 0.25 µg/mL (≈ 0.494 µM) | 20 µg/mL (≈ 39.6 µM) | 1 µg/mL (≈ 1.98 µM) | 1.25 µg/mL (≈ 2.47 µM) | 2 µg/mL (≈ 3.96 µM) | 128 µg/mL (≈ 253 µM) | 16 µg/mL (≈ 31.6 µM) | > 80 µg/mL | > 128 µg/mL | 128 µg/mL (≈ 253 µM) | 0.25 µg/mL (≈ 0.494 µM) | MIC ([3]; M. suipneumoniae ATCC 25095, 6 days, 37° C., read-out: MIC): 0.5 µg/mL (≈ 0.989 µM); MIC [4]: 1 µg/mL (≈ 1.98 µM); MIC [16]: 1 µg/mL (≈ 1.98 µM); MIC [24]: 32 µg/mL (≈ 63.3 µM); MIC [25]: 4 µg/mL (≈ 7.91 µM); MIC [26]: 0.25 µg/mL (≈ 0.494 µM); MIC [27]: 10 µg/mL (≈ 19.8 µM); MIC [28]: 2.5 µg/mL (≈ 4.94 µM); MIC [29]: > 80 µg/mL; MIC ([30]; M. hyorhinis ATCC 25021, 6 days, 37° C., read-out: MIC): 0.5 µg/mL (≈ 0.989 µM); MIC [31]: 5 µg/mL (≈ 9.89 µM); MIC [32]: > 128 µg/mL; MIC ([33]; Bacillus subtilis 6633, 5% chocolated horse blood agar, 18 hours, read-out: MIC): 2 µg/mL (≈ 3.96 µM); MIC [34]: 1 µg/mL (≈ 1.98 µM)
C/C(=C\c1ncc(-c2ccccc2[N+](=O)[O-])o1)C[C@@H]1OC[C@H](C[C@@H]2O[C@H]2[C@@H](C)[C@H](C)O)[C@@H](O)[C@H]1O [Example 26, 5-o-Nitrophenyl-2-(1-normon-2-yl)oxazole A] | 20 µg/mL (≈ 40.9 µM) | 2 µg/mL (≈ 4.09 µM) | 4 µg/mL (≈ 8.19 µM) | 4 µg/mL (≈ 8.19 µM) | > 128 µg/mL | > 128 µg/mL | 1 µg/mL (≈ 2.05 µM) | 2.5 µg/mL (≈ 5.12 µM) | 80 µg/mL (≈ 164 µM) | 2.5 µg/mL (≈ 5.12 µM) | 10 µg/mL (≈ 20.5 µM) | 2.5 µg/mL (≈ 5.12 µM) | 0.625 µg/mL (≈ 1.28 µM) | 2 µg/mL (≈ 4.09 µM) | > 128 µg/mL | 16 µg/mL (≈ 32.8 µM) | > 80 µg/mL | > 128 µg/mL | > 128 µg/mL | 1 µg/mL (≈ 2.05 µM) | MIC [3]: 2.5 µg/mL (≈ 5.12 µM); MIC ([4]; M. suipneumoniae TAM 6N, 6 days, 37° C., read-out: MIC): 5 µg/mL (≈ 10.2 µM); MIC ([16]; M. suipneumoniae HK(2), 6 days, 37° C., read-out: MIC): 5 µg/mL (≈ 10.2 µM); MIC [24]: 4 µg/mL (≈ 8.19 µM); MIC [25]: 8 µg/mL (≈ 16.4 µM); MIC [26]: 1 µg/mL (≈ 2.05 µM); MIC [27]: 2.5 µg/mL (≈ 5.12 µM); MIC [28]: 5 µg/mL (≈ 10.2 µM); MIC [29]: > 80 µg/mL; MIC [30]: 2.5 µg/mL (≈ 5.12 µM); MIC [31]: 10 µg/mL (≈ 20.5 µM); MIC [32]: > 128 µg/mL; MIC ([33]; Bacillus subtilis, 6633, 18 h): 0.25 µg/mL (≈ 0.512 µM); MIC [34]: 2.5 µg/mL (≈ 5.12 µM)
